The values below come from US10000488B2, “Heterocyclic compound” (TAKEDA PHARMACEUTICAL COMPANY LIMITED, priority 2014, dated 2018).

SMILES strings stand for the structures. Where a name gives a salt, the structure may show the parent alone.

Assay [1] has as its target T1, RORγt (Homo sapiens, UniProt P51449).
T1 sequence (P51449 1-497 isoform P51449-2): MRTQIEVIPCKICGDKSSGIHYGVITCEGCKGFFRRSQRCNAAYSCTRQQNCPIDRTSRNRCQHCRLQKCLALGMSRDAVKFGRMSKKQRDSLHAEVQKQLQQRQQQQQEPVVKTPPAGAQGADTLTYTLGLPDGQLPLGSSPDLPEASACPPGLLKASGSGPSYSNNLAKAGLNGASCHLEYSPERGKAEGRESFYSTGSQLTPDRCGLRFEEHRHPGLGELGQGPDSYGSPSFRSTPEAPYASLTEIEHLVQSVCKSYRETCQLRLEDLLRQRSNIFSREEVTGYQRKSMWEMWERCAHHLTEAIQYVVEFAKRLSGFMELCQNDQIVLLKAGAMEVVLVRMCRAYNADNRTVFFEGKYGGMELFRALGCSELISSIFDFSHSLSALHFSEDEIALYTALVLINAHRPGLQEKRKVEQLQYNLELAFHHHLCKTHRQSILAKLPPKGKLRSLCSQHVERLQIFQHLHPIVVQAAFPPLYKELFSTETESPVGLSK
As to the kind of experiment: Cofactor recruitment test (Alpha Screen, biotinylated SRC-1 peptide). Format: biochemical. The settings on record: read-out: signal value inhibitory rate (%) at test compound 1 μM. As to the method: Cofactor Recruitment Test
Cofactor recruitment test was performed by Alpha Screen (Histidine Detection Kit, PerkinElmer) method. First, a test compound was diluted with an assay buffer (50 mM Tris-HCl (pH 7.5), 50 mM KCl, 1 mM DTT, 0.1% BSA) and added to a 384 well plate by 5 μL. […] The mixture was stood in a dark place for 1 hr, and the signal value was measured by Envision (PerkinElmer).

For assay [2], the target named is T1, RORγt. As to the kind of experiment: Jurkat reporter test (human IL-17 ROR response element luciferase reporter, RORγt vector). The format is cell-based. Conditions: test compound 3 μM; Jurkat cells; read-out: luminescence level inhibitory rate (%) at test compound 3 μM. The gist of the method: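 Jurkat cells were electroporated (1350 V, 10 ms, 3 pulses) with the reporter constructs and plated in RPMI with 10% lipid-reduced FCS, 10 mM HEPES pH 7.5 and 5 μM lovastatin. After overnight culture with compound, luciferase activity was measured by luminescence following a 10 min room-temperature incubation with Bright-Glo.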
For orientation: In a reporter assay the amount or activity of a reporter protein is the signal.

Assay [3] concerns the target T1, RORγt. Kind of assay: RORγt binding test using fluorescent-labeled synthetic ligand (TR-FRET). The settings on record: test compound 1 μM; read-out: binding inhibitory rate (%) of fluorescent-labeled synthetic ligand to RORγt at test compound 1 μM. The gist of the method:
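Compound displacement of a fluorescent-labeled synthetic ligand from His-tagged RORγt was read by TR-FRET with a terbium anti-His antibody. Buffer was 20 mM Tris-HCl pH 7.5, 100 mM NaCl, 1 mM DTT and 0.1% BSA, with stocks of 240 nM protein, 12 μM ligand and 8 nM antibody (pre-mix, not final). Incubations were 20 min plus 20 min at room temperature, with excitation at 320 nm, emission at 520 nm and a 100 μs delay.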
A general note: In TR-FRET formats the signal depends on donor and acceptor labels being close together.

Take `CC(C)n1c(=O)n(CC2CC2)c(=O)c2cc(NC(=O)N3CCC[C@@H](NC(=O)c4ccc(C#N)cc4F)C3)ccc21` [Example 219, (3R)-3-((4-cyano-2-fluorobenzoyl)amino)-N-(3-(cyclopropylmethyl)-1-isopropyl-2,4-dioxo-1,2,3,4-tetrahydroquinazolin-6-yl)piperidine-1-carboxamide]: the inhibition at 1 µM amounted to 110% in assay [1] and 102% in assay [3]. Moreover, the inhibition at 3 µM in assay [2] was found to be 101%.
Turning to `CC(C)n1c(=O)n(CC2CC2)c(=O)c2cc(NC(=O)N3CCNC(C(=O)Nc4ccc(C#N)c(F)c4)C3)ccc21` (stereo not drawn) [Example 92, N^3-(4-cyano-3-fluorophenyl)-N^1-(3-(cyclopropylmethyl)-1-isopropyl-2,4-dioxo-1,2,3,4-tetrahydroquinazolin-6-yl)piperazine-1,3-dicarboxamide hydrochloride], the inhibition at 1 µM in assay [1] was found to be 103%; in assay [3] it was 102%. For the same compound, the inhibition at 3 µM in assay [2] was 103%.
On to `CC(C)n1c(=O)n(CC2CC2(F)F)c(=O)c2cc(NC(=O)N3CCOC(C(=O)Nc4ccc(C#N)c(Cl)c4)C3)c(F)cc21` (single isomer, unassigned) [Example 366, (2R)—N^2-(3-chloro-4-cyanophenyl)-N^4-(3-(((1R or 1S)-2,2-difluorocyclopropyl)methyl)-7-fluoro-1-isopropyl-2,4-dioxo-1,2,3,4-tetrahydroquinazolin-6-yl)morpholine-2,4-dicarboxamide (one stereoisomer, quinazolinedione: derived from tR1)], for which the values for the inhibition at 1 µM in assay [1] and in assay [3] were 105% and 102%, respectively. In addition, in assay [2], the inhibition at 3 µM was 108%.
With `CC(C)n1c(=O)n(CC2CC2)c(=O)c2cc(NC(=O)N3CCC[C@@H](NC(=O)c4cccc(Cl)c4)C3)ccc21` [Example 248, (3R)-3-((3-chlorobenzoyl)amino)-N-(3-(cyclopropylmethyl)-1-isopropyl-2,4-dioxo-1,2,3,4-tetrahydroquinazolin-6-yl)piperidine-1-carboxamide], the inhibition at 1 µM was found to be 104% in assay [1] and 102% in assay [3]. The inhibition at 3 µM in assay [2] was found to be 104%.
`CC(C)n1c(=O)n(CC2CC2)c(=O)c2cc(NC(=O)N3CCO[C@@H](C(=O)Nc4cnc(C#N)c(Cl)c4)C3)ccc21` [Example 122, (2R)-N^2-(5-chloro-6-cyanopyridin-3-yl)-N^4-(3-(cyclopropylmethyl)-1-isopropyl-2,4-dioxo-1,2,3,4-tetrahydroquinazolin-6-yl)morpholine-2,4-dicarboxamide]: the inhibition at 1 µM in assay [1] came to 112%; in assay [3], 101%. Also, in assay [2], the inhibition at 3 µM worked out at 103%.
The like results for `COC(=O)c1ccc(C(=O)NC2CCCN(C(=O)Nc3ccc4c(c3)c(=O)n(CC3CC3)c(=O)n4C(C)C)C2)cc1` (stereo not drawn) [Example 132, methyl 4-((1-((3-(cyclopropylmethyl)-1-isopropyl-2,4-dioxo-1,2,3,4-tetrahydroquinazolin-6-yl)carbamoyl)piperidin-3-yl)carbamoyl)benzoate] were, in that order, 112%, 102% and 100%.
The like results for `CC(C)n1c(=O)n(CC2CC2)c(=O)c2cc(NC(=O)N3CCCC(NC(=O)c4ccc(C#N)cc4)C3)ccc21` (stereo not drawn) [Example 180, 3-((4-cyanobenzoyl)amino)-N-(3-(cyclopropylmethyl)-1-isopropyl-2,4-dioxo-1,2,3,4-tetrahydroquinazolin-6-yl)piperidine-1-carboxamide] were, in that order, 111%, 102% and 101%.
The like results for `Cc1ccc(F)c(C(=O)N[C@@H]2CCCN(C(=O)Nc3cc4c(=O)n(CC5CC5)c(=O)n(C(C)C)c4cc3F)C2)c1` [Example 283, (3R)-N-(3-(cyclopropylmethyl)-7-fluoro-1-isopropyl-2,4-dioxo-1,2,3,4-tetrahydroquinazolin-6-yl)-3-((2-fluoro-5-methylbenzoyl)amino)piperidine-1-carboxamide] were, in that order, 108%, 102% and 101%.
Take `CC(C)n1c(=O)n(CC2CC2)c(=O)c2cc(NC(=O)N3CCC[C@@H](NC(=O)c4ccc(C#N)cc4)C3)ccc21` [Example 218, (3R)-3-((4-cyanobenzoyl)amino)-N-(3-(cyclopropylmethyl)-1-isopropyl-2,4-dioxo-1,2,3,4-tetrahydroquinazolin-6-yl)piperidine-1-carboxamide]: the figures for the inhibition at 1 µM in assay [1] and in assay [3] were 111% and 102%, respectively. Also, the inhibition at 3 µM in assay [2] was found to be 103%.
Taken in the same sequence, the figures for `COc1ccc(C(=O)N[C@@H]2CCCN(C(=O)Nc3cc4c(=O)n(CC5CC5)c(=O)n(C(C)C)c4cc3F)C2)c(F)c1` [Example 291, (3R)-N-(3-(cyclopropylmethyl)-7-fluoro-1-isopropyl-2,4-dioxo-1,2,3,4-tetrahydroquinazolin-6-yl)-3-((2-fluoro-4-methoxybenzoyl)amino)piperidine-1-carboxamide] were 107%, 102% and 101%.
Taken in the same sequence, the figures for `CC(C)n1c(=O)n(CC2CC(F)(F)C2)c(=O)c2cc(NC(=O)N3CCC[C@@H](n4cnc5cc(C#N)ccc5c4=O)C3)c(F)cc21` [Example 363, (3R)-3-(7-cyano-4-oxoquinazoline-3(4H)-yl)-N-(3-((3,3-difluorocyclobutyl)methyl)-7-fluoro-1-isopropyl-2,4-dioxo-1,2,3,4-tetrahydroquinazolin-6-yl)piperidine-1-carboxamide] were 106%, 102% and 107%.
The like results for `CC(C)n1c(=O)n(CC2CC2)c(=O)c2cc(NC(=O)N3CCO[C@@H](C(=O)Nc4ccc(C#N)c(Cl)c4)C3)c(F)cc21` [Example 235, (2R)-N^2-(3-chloro-4-cyanophenyl)-N^4-(3-(cyclopropylmethyl)-7-fluoro-1-isopropyl-2,4-dioxo-1,2,3,4-tetrahydroquinazolin-6-yl)morpholine-2,4-dicarboxamide] were, in that order, 109%, 102% and 103%.
Take `CC(C)n1c(=O)n(C[C@@H]2CCCO2)c(=O)c2cc(NC(=O)N3CCO[C@@H](C(=O)Nc4ccc(C#N)c(Cl)c4)C3)c(F)cc21` [Example 357, (2R)—N^2-(3-chloro-4-cyanophenyl)-N^4-(7-fluoro-1-isopropyl-2,4-dioxo-3-((2S)-tetrahydrofuran-2-ylmethyl)-1,2,3,4-tetrahydroquinazolin-6-yl)morpholine-2,4-dicarboxamide]: the results for the inhibition at 1 µM in assay [1] and in assay [3] were 107% and 101%, respectively. In addition, the inhibition at 3 µM in assay [2] was 106%.
The like results for `Cc1ccc(F)c(C(=O)N[C@@H]2CCCN(C(=O)Nc3ccc4c(c3)c(=O)n(CC3CC3)c(=O)n4C(C)C)C2)c1` [Example 259, (3R)-N-(3-(Cyclopropylmethyl)-1-isopropyl-2,4-dioxo-1,2,3,4-tetrahydroquinazolin-6-yl)-3-((2-fluoro-5-methylbenzoyl)amino)piperidine-1-carboxamide] were, in that order, 102%, 102% and 102%.
